Drawing on patent publication US20250145601A1, “NOVEL BICYCLIC COMPOUNDS AS RAD51 INHIBITORS” (SATYA THERAPEUTICS, INC., priority 2022, published 2025), this text covers inhibition for 15 compounds.

This assay has as its system MDA MB 231 cells. As to the kind of experiment: Antiproliferation assay in MDA MB 231 cells (Cell Titer Glo). As to conditions: Homo sapiens, MDA-MB-231, 216 h, MDAMB231 cell line, 9 day treatment, racemic compounds (Table 2). The class given is cell-based. Summed up: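 Treated for 9 days in total with rising doses, MDA MB 231 cells (250/well, 37° C, 5% CO2) got fresh compound on day 5. Viability by Cell Titer Glo luminescence (ATP), with cell-free wells subtracted as blank.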
For orientation: In ATP-based viability assays light output follows the ATP content of the culture.
By inhibition is commonly meant the percentage by which the read-out fell short of the control. A low value points to a weak effect. On to `CCC(=O)N1N=C(c2c(C)c3ccsc3[nH]c2=O)CC1c1ccc(CF)cc1` (stereo not drawn) [Example 68, 5-(5-(4-(fluoromethyl)phenyl)-1-propionyl-4,5-dihydro-1H-pyrazol-3-yl)-4-methylthieno[2,3-b]pyridin-6(7H)-one], for which the inhibition at 10 µM is no less than 50%.
To `CCC(=O)N1N=C(c2c(C)c3ncccc3[nH]c2=O)CC1c1ccc(C)cc1` (stereo not drawn) [Example 69, 4-methyl-3-(1-propionyl-5-(p-tolyl)-4,5-dihydro-1H-pyrazol-3-yl)-1,5-naphthyridin-2(1H)-one] belongs no less than 50%.
The result for `CCC(=O)N1N=C(c2c(C)c3ccsc3[nH]c2=O)CC1Cc1ccccc1` (stereo not drawn) [Example 71, 5-(5-benzyl-1-propionyl-4,5-dihydro-1H-pyrazol-3-yl)-4-methylthieno[2,3-b]pyridin-6(7H)-one] reads no less than 50%.
The result for `CCC(=O)N1N=C(c2c(C)c3cc(Cl)sc3[nH]c2=O)CC1c1ccc(C)cc1` (stereo not drawn) [Example 72, 2-chloro-4-methyl-5-(1-propionyl-5-(p-tolyl)-4,5-dihydro-1H-pyrazol-3-yl)thieno[2,3-b]pyridin-6(7H)-one] reads no less than 50%; that for `CCC(=O)N1N=C(c2c(C)c3cccnc3[nH]c2=O)CC1c1ccc(C)cc1` (stereo not drawn) [Example 73, 4-methyl-3-(1-propionyl-5-(p-tolyl)-4,5-dihydro-1H-pyrazol-3-yl)-1,8-naphthyridin-2(1H)-one], no less than 50%; that for `CCC(=O)N1N=C(c2c(C)c3ccc(C)cc3[nH]c2=O)CC1c1ccc(C)cc1` (stereo not drawn) [Example 75, 4,7-dimethyl-3-(1-propionyl-5-(p-tolyl)-4,5-dihydro-1H-pyrazol-3-yl)quinolin-2(1H)-one], no less than 50%.
Compound `CCC(=O)N1N=C(c2c(C)c3c(C)cccc3[nH]c2=O)CC1c1ccc(C)cc1` (stereo not drawn) [Example 76, 4,5-dimethyl-3-(1-propionyl-5-(p-tolyl)-4,5-dihydro-1H-pyrazol-3-yl)quinolin-2(1H)-one] yielded an inhibition at 10 µM of no less than 50%.
The result for `CCC(=O)N1N=C(c2c(C)c3ccc(N4CCOCC4)cc3[nH]c2=O)CC1c1ccc(C)cc1` (stereo not drawn) [Example 77, 4-methyl-7-morpholino-3-(1-propionyl-5-(p-tolyl)-4,5-dihydro-1H-pyrazol-3-yl)quinolin-2(1H)-one] reads no less than 50%; that for `CCC(=O)N1N=C(c2c(C)c3cc(Cl)ncc3[nH]c2=O)CC1c1ccc(C)cc1` (stereo not drawn) [Example 79, 6-chloro-4-methyl-3-(1-propionyl-5-(p-tolyl)-4,5-dihydro-1H-pyrazol-3-yl)-1,7-naphthyridin-2(1H)-one], no less than 50%.
To `CCC(=O)N1N=C(c2c(C)c3cc(C)ncc3[nH]c2=O)CC1c1ccc(C)cc1` (stereo not drawn) [Example 81, 4,6-dimethyl-3-(1-propionyl-5-(p-tolyl)-4,5-dihydro-1H-pyrazol-3-yl)-1,7-naphthyridin-2(1H)-one] belongs less than 50%.
The result for `CCC(=O)N1N=C(c2c(C)c3ccc(F)cc3[nH]c2=O)CC1c1ccc(C)cc1` (stereo not drawn) [Example 83, 7-fluoro-4-methyl-3-(1-propionyl-5-(p-tolyl)-4,5-dihydro-1H-pyrazol-3-yl)quinolin-2(1H)-one] reads no less than 50%; that for `CCC(=O)N1N=C(c2c(C)c3ccc(C)nc3[nH]c2=O)CC1c1ccc(C)cc1` (stereo not drawn) [Example 84, 4,7-dimethyl-3-(1-propionyl-5-(p-tolyl)-4,5-dihydro-1H-pyrazol-3-yl)-1,8-naphthyridin-2(1H)-one], no less than 50%; that for `CCC(=O)N1N=C(c2c(C)c3cnccc3[nH]c2=O)CC1c1ccc(C)cc1` (stereo not drawn) [Example 85, 4-methyl-3-(1-propionyl-5-(p-tolyl)-4,5-dihydro-1H-pyrazol-3-yl)-1,6-naphthyridin-2(1H)-one], no less than 50%.
Regarding `CCC(=O)N1N=C(c2c(C)c3ccc(N4CCOCC4)nc3[nH]c2=O)CC1c1ccc(C)cc1` (stereo not drawn) [Example 86, 4-methyl-7-morpholino-3-(1-propionyl-5-(p-tolyl)-4,5-dihydro-1H-pyrazol-3-yl)-1,8-naphthyridin-2(1H)-one], the inhibition at 10 µM is less than 50%.
To `CCC(=O)N1N=C(c2c(C)c3ccc(OCCOC)nc3[nH]c2=O)CC1c1ccc(C)cc1` (stereo not drawn) [Example 87, 7-(2-methoxyethoxy)-4-methyl-3-(1-propionyl-5-(p-tolyl)-4,5-dihydro-1H-pyrazol-3-yl)-1,8-naphthyridin-2(1H)-one] belongs no less than 50%.
